Data as given in patent US12624018B1, “Inhibitors of RIPK2 and medical uses thereof” (Odyssey Therapeutics, Inc., priority 2022, dated 2026).
pIC50: −log10 of the molar value.

What follows are molecules tested against T1, RIPK2 enzyme (Homo sapiens, UniProt O43353) (assay: RIPK2 inhibition (ADP-Glo Kinase Assay)). Details: RIPK2 5 nM, ATP 150 μM, MBP substrate, read-out: RIPK2 IC50.
T1 construct: purchased Carna 09-128
T1 sequence (O43353 1-299 limits assumed): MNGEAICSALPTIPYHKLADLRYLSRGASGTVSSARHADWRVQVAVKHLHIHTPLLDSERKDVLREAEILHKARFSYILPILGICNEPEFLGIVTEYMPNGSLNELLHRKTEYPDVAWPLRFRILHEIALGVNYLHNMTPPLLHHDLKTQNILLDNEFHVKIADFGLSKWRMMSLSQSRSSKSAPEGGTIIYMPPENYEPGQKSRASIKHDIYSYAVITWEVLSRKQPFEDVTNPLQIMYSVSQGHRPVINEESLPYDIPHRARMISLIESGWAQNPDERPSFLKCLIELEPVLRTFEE
Format: biochemical
In short: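 Human RIPK2 (5 nM) preincubated with compound 30 min at room temperature in 50 mM HEPES pH 7.5, 10 mM MgCl2, 2 mM DTT, 1 mM EGTA, 0.01% Brij-35, 0.05% BSA; native swine MBP as substrate. ADP formed quantified by ADP-Glo luminescence; percent inhibition relative to DMSO and no-enzyme controls.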
CNC(=O)c1cc2c(Oc3cc(F)c(CC(=O)Nc4cnn(C(C)(C)C)c4)cc3C)ccnc2cc1F [Compound 435, 4-(4-(2-((1-(tert-butyl)-1H-pyrazol-4-yl)amino)-2-oxoethyl)-5-fluoro-2-methylphenoxy)-7-fluoro-N-methylquinoline-6-carboxamide] showed a pIC50 of over 8.60. Work on COc1cc2nccc(Oc3cc(F)c(CC(=O)Nc4cnn(C(C)(C)C)c4)cc3C)c2cc1C(N)=O [Compound 436, 4-(4-(2-((1-(tert-butyl)-1H-pyrazol-4-yl)amino)-2-oxoethyl)-5-fluoro-2-methylphenoxy)-7-methoxyquinoline-6-carboxamide] yielded a pIC50 of over 8.60. For CNC(=O)c1cc2c(Oc3cc(F)c(CC(=O)Nc4cnn(C(C)(C)C)c4)cc3C)ccnc2cc1OC [Compound 437, 4-(4-(2-((1-(tert-butyl)-1H-pyrazol-4-yl)amino)-2-oxoethyl)-5-fluoro-2-methylphenoxy)-7-methoxy-N-methylquinoline-6-carboxamide], the pIC50 was over 8.60. For Cc1cc(CC(=O)Nc2cnn(C(C)(C)C)c2)c(F)cc1Oc1ncnc2cc(F)c(C(N)=O)cc12 [Compound 438, 4-(4-(2-((1-(tert-butyl)-1H-pyrazol-4-yl)amino)-2-oxoethyl)-5-fluoro-2-methylphenoxy)-7-fluoroquinazoline-6-carboxamide], the pIC50 was 8.46. Work on COc1cc2ncnc(Oc3cc(F)c(CC(=O)Nc4cnn(C(C)(C)C)c4)cc3C)c2cc1C(N)=O [Compound 439, 4-(4-(2-((1-(tert-butyl)-1H-pyrazol-4-yl)amino)-2-oxoethyl)-5-fluoro-2-methylphenoxy)-7-methoxyquinazoline-6-carboxamide] yielded a pIC50 of over 8.60. CNC(=O)c1cc2c(Oc3cc(F)c(CC(=O)Nc4cnn(C(C)(C)C)c4)cc3C)ncnc2cc1OC [Compound 440, 4-(4-(2-((1-(tert-butyl)-1H-pyrazol-4-yl)amino)-2-oxoethyl)-5-fluoro-2-methylphenoxy)-7-methoxy-N-methylquinazoline-6-carboxamide] was tested, and the pIC50 was over 8.60. Cc1c(Oc2ccnc3ccc(C(O)CO)cc23)ccc(CC(=O)Nc2cnn(C(C)(C)C)c2)c1F (centres unmarked) [Compound 444, N-(1-(tert-butyl)-1H-pyrazol-4-yl)-2-(4-((6-(1,2-dihydroxyethyl)quinolin-4-yl)oxy)-2-fluoro-3-methylphenyl)acetamide] showed a pIC50 of over 8.60. Molecule Cc1cc(CC(=O)Nc2cnn(C(C)(C)C)c2)cc(C)c1Oc1ccnc2ccc(S(C)(=O)=O)cc12 [Compound 445, N-(1-(tert-butyl)-1H-pyrazol-4-yl)-2-(3,5-dimethyl-4-((6-(methylsulfonyl)quinolin-4-yl)oxy)phenyl)acetamide] has a pIC50 of over 8.60. Molecule Cc1cc(Oc2ccnc3ccc(S(C)(=O)=O)cc23)c(C)cc1CC(=O)Nc1cnn(C(C)(C)C)c1 [Compound 446, N-(1-(tert-butyl)-1H-pyrazol-4-yl)-2-(2,5-dimethyl-4-((6-(methylsulfonyl)quinolin-4-yl)oxy)phenyl)acetamide] has a pIC50 of 7.67. Cc1cc(CC(=O)Nc2cnn(C(C)(C)C)c2)cc(F)c1Oc1ncnc2ccc(C(N)=O)cc12 [Compound 447, 4-(4-(2-((1-(tert-butyl)-1H-pyrazol-4-yl)amino)-2-oxoethyl)-2-fluoro-6-methylphenoxy)quinazoline-6-carboxamide] gave a pIC50 of over 8.60. For COC1CN(C(=O)c2ccc3nccc(Oc4cc(F)c(CC(=O)Nc5cnn(C(C)(C)C)c5)cc4C)c3c2)C1 [Compound 448, N-(1-(tert-butyl)-1H-pyrazol-4-yl)-2-(2-fluoro-4-((6-(3-methoxyazetidine-1-carbonyl)quinolin-4-yl)oxy)-5-methylphenyl)acetamide], the pIC50 was over 8.60. Molecule Cc1cc(CC(=O)Nc2cnn(C(C)(C)C)c2)c(F)cc1Oc1ccnc2ccc(C(=O)N3CCC(N)C3)cc12 (centres unmarked) [Compound 449, 2-(4-((6-(3-aminopyrrolidine-1-carbonyl)quinolin-4-yl)oxy)-2-fluoro-5-methylphenyl)-N-(1-(tert-butyl)-1H-pyrazol-4-yl)acetamide] has a pIC50 of over 8.60. Work on Cc1cc(CC(=O)Nc2cnn(C(C)(C)C)c2)c(F)cc1Oc1ccnc2ccc(C(=O)N3[C@H](C)CCC[C@@H]3C)cc12 [Compound 450, N-(1-(tert-butyl)-1H-pyrazol-4-yl)-2-(4-((6-((2S,6R)-2,6-dimethylpiperidine-1-carbonyl)quinolin-4-yl)oxy)-2-fluoro-5-methylphenyl)acetamide] yielded a pIC50 of over 8.60. Work on Cc1cc(CC(=O)Nc2cnn(C(C)(C)C)c2)c(F)cc1Oc1ccnc2ccc(C(=O)N3[C@H](C)COC[C@@H]3C)cc12 [Compound 451, N-(1-(tert-butyl)-1H-pyrazol-4-yl)-2-(4-((6-((3S,5R)-3,5-dimethylmorpholine-4-carbonyl)quinolin-4-yl)oxy)-2-fluoro-5-methylphenyl)acetamide] yielded a pIC50 of over 8.60. In the case of Cc1cc(CC(=O)Nc2cnn(C(C)(C)C)c2)c(F)cc1Oc1ccnc2ccc(C(=O)N3C[C@H]4C[C@@H]3CO4)cc12 [Compound 452, 2-(4-((6-((1R,4R)-2-oxa-5-azabicyclo[2.2.1]heptane-5-carbonyl)quinolin-4-yl)oxy)-2-fluoro-5-methylphenyl)-N-(1-(tert-butyl)-1H-pyrazol-4-yl)acetamide], the pIC50 was over 8.60. For Cc1cc(CC(=O)Nc2cnn(C(C)(C)C)c2)c(F)cc1Oc1ccnc2ccc(C(=O)N3C[C@H]4C[C@@H]3CN4)cc12 [Compound 453, 2-(4-((6-((1R,4R)-2,5-diazabicyclo[2.2.1]heptane-2-carbonyl)quinolin-4-yl)oxy)-2-fluoro-5-methylphenyl)-N-(1-(tert-butyl)-1H-pyrazol-4-yl)acetamide], the pIC50 was over 8.60. With Cc1cc(CC(=O)Nc2cnn(C(C)(C)C)c2)c(F)cc1Oc1ccnc2ccc(C(=O)N3C[C@@H]4C[C@H]3CO4)cc12 [Compound 454, 2-(4-((6-((1S,4S)-2-oxa-5-azabicyclo[2.2.1]heptane-5-carbonyl)quinolin-4-yl)oxy)-2-fluoro-5-methylphenyl)-N-(1-(tert-butyl)-1H-pyrazol-4-yl)acetamide] the pIC50 was over 8.60. In the case of Cc1cc(CC(=O)Nc2cnn(C(C)(C)C)c2)c(F)cc1Oc1ccnc2ccc(C(=O)NC(C)C)cc12 [Compound 455, 4-(4-(2-((1-(tert-butyl)-1H-pyrazol-4-yl)amino)-2-oxoethyl)-5-fluoro-2-methylphenoxy)-N-isopropylquinoline-6-carboxamide], the pIC50 was over 8.60. Cc1cc(CC(=O)Nc2cnn(C(C)(C)C)c2)c(F)cc1Oc1ccnc2ccc(C(=O)NC(C)(C)C)cc12 [Compound 456, N-(tert-butyl)-4-(4-(2-((1-(tert-butyl)-1H-pyrazol-4-yl)amino)-2-oxoethyl)-5-fluoro-2-methylphenoxy)quinoline-6-carboxamide] showed a pIC50 of over 8.60. Cc1cc(CC(=O)Nc2cnn(C(C)(C)C)c2)c(F)cc1Oc1ccnc2ccc(C(=O)NC3CC3)cc12 [Compound 457, 4-(4-(2-((1-(tert-butyl)-1H-pyrazol-4-yl)amino)-2-oxoethyl)-5-fluoro-2-methylphenoxy)-N-cyclopropylquinoline-6-carboxamide] gave a pIC50 of over 8.60. Cc1cc(CC(=O)Nc2cnn(C(C)(C)C)c2)c(F)cc1Oc1ccnc2ccc(C(=O)NC3(C)CC3)cc12 [Compound 458, 4-(4-(2-((1-(tert-butyl)-1H-pyrazol-4-yl)amino)-2-oxoethyl)-5-fluoro-2-methylphenoxy)-N-(1-methylcyclopropyl)quinoline-6-carboxamide] was tested, and the pIC50 was over 8.60. With CSc1ccc2nccc(Oc3cc(F)c(CC(=O)Nc4cnn(C(C)(C)C)c4)cc3C)c2c1 [Compound 459, N-(1-(tert-butyl)-1H-pyrazol-4-yl)-2-(2-fluoro-5-methyl-4-((6-(methylthio)quinolin-4-yl)oxy)phenyl)acetamide] the pIC50 was over 8.60. With Cc1cc(CC(=O)Nc2cnn(C(C)(C)C)c2)c(F)cc1Oc1ccnc2ccc(-c3nnccc3C)cc12 [Compound 460, N-(1-(tert-butyl)-1H-pyrazol-4-yl)-2-(2-fluoro-5-methyl-4-((6-(4-methylpyridazin-3-yl)quinolin-4-yl)oxy)phenyl)acetamide] the pIC50 was over 8.60.
